Experimental data reported in US20240101531A1, “PYRIDINAMINE DERIVATIVES AND THEIR USE AS POTASSIUM CHANNEL MODULATORS” (Xenon Pharmaceuticals Inc., priority 2022, published 2024).
pEC50: −log10 of the molar value. Structures can show the parent of a compound that is named as a salt.

target: human KV7.2/KV7.3 (Homo sapiens (Human), UniProt O43525+O43526); assay: Potassium flux assay (IPG-2 AM dye); format: cell-based; settings: TREX HEK 293 or HEK 293 cells expressing human KV7.2/KV7.3; arithmetic mean values
Text: This potassium flux assay employs the cell-permeable, potassium-sensitive dye, IPG-2 AM, to quantify potassium ion flux through potassium channels.
In general, TREX HEK 293 or HEK 293 cells were stably transfected with either an inducible or non-inducible expression vector containing the full-length cDNA coding for the desired human KV7.2/KV7.3 or in combination with another full-length cDNA for a second desired human KV7 potassium channel. Potassium channel-expressing cell lines were induced with tetracycline (1 μg/mL), if required, and plated on 384-well poly-D-lysine (PDL)-coated plates in culture media (DMEM, containing 10% FBS and 1% L-glutamine). After overnight incubation, culture media was removed and cells were loaded with 5 μM IPG-2 AM dye for 1 hour in Assay buffer (140 mM NaCl, 20 mM RbCl, 2 mM CaCl2, 1 mM MgCl2, 10 mM HEPES (4-(2-hydroxyethyl)-1-piperazineethanesulfonic acid buffer), 10 mM glucose, adjusted with Tris to pH 7.4). Excess dye was removed, and cells incubated at room temperature for 20 minutes with or without test compound. A Hamamatsu FDSS μCell was used to perform a 1:1 addition of K challenge buffer (150 mM NaCl, 10 mM HEPES, 2 mM CaCl2, 10 mM KCl, 1 mM MgCl2, 10 mM glucose, adjusted with Tris to pH 7.4 for human KV7.2/KV7.3, and simultaneously read plates at excitation wavelength of 530 nm and emission wavelength of 558 nm. Non-potassium channel-mediated potassium influx was determined in the presence of DMSO, and maximal influx was determined in the presence of a known KV7.x channel modulator. For each test compound, a concentration response curve was generated with 16 concentrations points, 2-fold serial dilution starting at 30 μM and an EC50 value was determined.

SMILES | pEC50
O[C@@H]1COC[C@@H]1Oc1ccc2c(Nc3ccc(Cl)nc3)nccc2c1 (racemic) [Example 79, rac-(3R,4S)-4-((1-((6-chloropyridin-3-yl)amino)isoquinolin-6-yl)oxy)tetrahydrofuran-3-ol] | 5.00 to 6.00
O[C@H]1CC[C@@H](Oc2ccc3c(Nc4ccc(Cl)nc4)nccc3c2)C1 (racemic) [Example 102, rac-(1S,3R)-3-((1-((6-chloropyridin-3-yl)amino)isoquinolin-6-yl)oxy)cyclopentan-1-ol] | > 6.00
N#CC1(COc2ccc3c(Nc4ccc(Cl)nc4)nccc3c2)CCOC1 (racemic) [Example 124, 3-(((1-((6-chloropyridin-3-yl)amino)isoquinolin-6-yl)oxy)methyl)tetrahydrofuran-3-carbonitrile] | > 6.00
Cc1nn(C)cc1C(C)Oc1ccc2c(Nc3ccc(Cl)nc3)nccc2c1 (racemic) [Example 173, N-(6-chloropyridin-3-yl)-6-(1-(1,3-dimethyl-1H-pyrazol-4-yl)ethoxy)isoquinolin-1-amine] | 5.00 to 6.00
CO[C@@H]1CCC[C@H](Oc2ccc3c(Nc4cnc(Cl)nc4)nccc3c2)C1 (racemic) [Example 360, cis-N-(2-chloropyrimidin-5-yl)-6-(((1S,3R)-3-methoxycyclohexyl)oxy)isoquinolin-1-amine] | > 6.00
O[C@@H]1CCCC[C@H]1Oc1ccc2c(Nc3ccc(Cl)nc3)nccc2c1 (relative stereo) [Example 143, trans-2-((1-((6-chloropyridin-3-yl)amino)isoquinolin-6-yl)oxy)cyclohexan-1-ol] | > 6.00
O[C@@H]1CCC[C@@H](Oc2ccc3c(Nc4ccc(Cl)nc4)nccc3c2)C1 (relative stereo) [Example 354, trans-3-((1-((6-chloropyridin-3-yl)amino)isoquinolin-6-yl)oxy)cyclohexan-1-ol] | > 6.00
N=[S@]1(=O)CCC[C@@H](COc2ccc3c(Nc4cnc(Cl)nc4)nccc3c2)C1 (relative stereo) [Example 366, cis-3-(((1-((2-chloropyrimidin-5-yl)amino)isoquinolin-6-yl)oxy)methyl)-1-iminohexahydro-1λ^6-thiopyran 1-oxide] | 5.00 to 6.00
N=[S@@]1(=O)CCC[C@@H](COc2ccc3c(Nc4cnc(Cl)nc4)nccc3c2)C1 (relative stereo) [Example 367, trans-3-(((1-((2-chloropyrimidin-5-yl)amino)isoquinolin-6-yl)oxy)methyl)-1-iminohexahydro-1λ^6-thiopyran 1-oxide] | > 6.00
CS(=O)(=Nc1ccc2c(Nc3ccc(Cl)nc3)nccc2c1)C1CC1 (stereo in doubt) [Example 273, (R)-((1-((6-chloropyridin-3-yl)amino)isoquinolin-6-yl)imino)(cyclopropyl)(methyl)-λ^6-sulfanone] | 5.00 to 6.00
CS(=O)(=Nc1ccc2c(Nc3ccc(Cl)nc3)nccc2c1)C1CC1 (stereo in doubt) [Example 274, (S)-((1-((6-chloropyridin-3-yl)amino)isoquinolin-6-yl)imino)(cyclopropyl)(methyl)-λ^6-sulfanone] | > 6.00
CS(=O)(=Nc1ccc2c(Nc3ccc(Cl)nc3)nccc2c1)C1COC1 (stereo in doubt) [Example 276, (S)-((1-((6-chloropyridin-3-yl)amino)isoquinolin-6-yl)imino)(methyl)(oxetan-3-yl)-λ^6-sulfanone)] | 5.00 to 6.00
CS(=O)(=Nc1ccc2c(Nc3ccc(Cl)nc3)nccc2c1)C1COC1 (stereo in doubt) [Example 277, (R)-((1-((6-chloropyridin-3-yl)amino)isoquinolin-6-yl)imino)(methyl)(oxetan-3-yl)-λ^6-sulfanone)] | 5.00 to 6.00
FC1(COc2ccc3c(Nc4ccc(Cl)nc4)nccc3c2)CCOC1 (stereo in doubt) [Example 364, (R)—N-(6-chloropyridin-3-yl)-6-((3-fluorotetrahydrofuran-3-yl)methoxy)isoquinolin-1-amine] | > 6.00
FC1(COc2ccc3c(Nc4ccc(Cl)nc4)nccc3c2)CCOC1 (stereo in doubt) [Example 365, (S)—N-(6-chloropyridin-3-yl)-6-((3-fluorotetrahydrofuran-3-yl)methoxy)isoquinolin-1-amine] | > 6.00
CC(C)Oc1ccc2c(Nc3ccc(Cl)nc3)nccc2c1 [Example 1, N-(6-chloropyridin-3-yl)-6-isopropoxyisoquinolin-1-amine] | 5.00 to 6.00
Clc1ccc(Nc2nccc3cc(OCC4CC4)ccc23)cn1 [Example 2, N-(6-chloropyridin-3-yl)-6-(cyclopropylmethoxy)isoquinolin-1-amine] | > 6.00
COCCOc1ccc2c(Nc3ccc(Cl)nc3)nccc2c1 [Example 4, N-(6-chloropyridin-3-yl)-6-(2-methoxyethoxy)isoquinolin-1-amine] | 5.00 to 6.00
FC(F)Oc1ccc2c(Nc3ccc(Cl)nc3)nccc2c1 [Example 7, N-(6-chloropyridin-3-yl)-6-(difluoromethoxy)isoquinolin-1-amine] | 5.00 to 6.00
Clc1ccc(Nc2nccc3sccc23)cn1 [Example 11, N-(6-chloropyridin-3-yl)thieno[3,2-c]pyridin-4-amine formate] | 5.00 to 6.00
Clc1ccc(Nc2nccc3scnc23)cn1 [Example 13, N-(6-chloropyridin-3-yl)thiazolo[4,5-c]pyridin-4-amine] | 5.00 to 6.00

Further lines, results first:

pEC50 | SMILES
> 6.00 | O[C@@H]1CCC[C@H](Oc2ccc3c(Nc4ccc(Cl)nc4)nccc3c2)C1 (racemic) [Example 95, rac-(1R,3S)-3-((1-((6-chloropyridin-3-yl)amino)isoquinolin-6-yl)oxy)cyclohexan-1-ol]
> 6.00 | O[C@@H]1CC[C@@H](Oc2ccc3c(Nc4ccc(Cl)nc4)nccc3c2)C1 (racemic) [Example 103, rac-(1R,3R)-3-((1-((6-chloropyridin-3-yl)amino)isoquinolin-6-yl)oxy)cyclopentan-1-ol]
> 6.00 | O[C@]1(C(F)(F)F)CCC[C@H](Oc2ccc3c(Nc4cnc(Cl)nc4)nccc3c2)C1 (racemic) [Example 145, rac-(1R,3S)-3-((1-((2-chloropyrimidin-5-yl)amino)isoquinolin-6-yl)oxy)-1-(trifluoromethyl)cyclohexan-1-ol]
> 6.00 | CC(Oc1ccc2c(Nc3ccc(Cl)nc3)nccc2c1)c1cnn(C)c1 (racemic) [Example 170, N-(6-chloropyridin-3-yl)-6-(1-(1-methyl-1H-pyrazol-4-yl)ethoxy)isoquinolin-1-amine]
> 6.00 | O[C@@H]1CCCC[C@@H]1Oc1ccc2c(Nc3ccc(Cl)nc3)nccc2c1 (relative stereo) [Example 142, cis-2-((1-((6-chloropyridin-3-yl)amino)isoquinolin-6-yl)oxy)cyclohexan-1-ol]
> 6.00 | O[C@@H]1CCC[C@H](Oc2ccc3c(Nc4cnc(Cl)nc4)nccc3c2)C1 (relative stereo) [Example 348, cis-3-((1-((2-chloropyrimidin-5-yl)amino)isoquinolin-6-yl)oxy)cyclohexan-1-ol]
> 6.00 | N#CC1(COc2ccc3c(Nc4ccc(Cl)nc4)nccc3c2)CCOC1 (stereo in doubt) [Example 125, (R)-3-(((1-((6-chloropyridin-3-yl)amino)isoquinolin-6-yl)oxy)methyl)tetrahydrofuran-3-carbonitrile]
> 6.00 | N#CC1(COc2ccc3c(Nc4ccc(Cl)nc4)nccc3c2)CCOC1 (stereo in doubt) [Example 126, (S)-3-(((1-((6-chloropyridin-3-yl)amino)isoquinolin-6-yl)oxy)methyl)tetrahydrofuran-3-carbonitrile]
5.00 to 6.00 | CCCOc1ccc2c(Nc3ccc(Cl)nc3)nccc2c1 [Example 3, N-(6-chloropyridin-3-yl)-6-propoxyisoquinolin-1-amine]
5.00 to 6.00 | Clc1ccc(Nc2nccc3cc(OCc4ccccn4)ccc23)cn1 [Example 5, N-(6-chloropyridin-3-yl)-6-(pyridin-2-ylmethoxy)isoquinolin-1-amine]
5.00 to 6.00 | CC1(C)CCC(COc2ccc3c(Nc4ccc(Cl)nc4)nccc3c2)O1 (stereo not drawn) [Example 6, N-(6-chloropyridin-3-yl)-6-((5,5-dimethyltetrahydrofuran-2-yl)methoxy)isoquinolin-1-amine]
5.00 to 6.00 | Clc1ccc(Nc2nccc3cc(Oc4ccccc4)ccc23)cn1 [Example 8, N-(6-chloropyridin-3-yl)-6-phenoxyisoquinolin-1-amine]
> 6.00 | Clc1ncc(Nc2nccc3cc(OCC4CC4)ccc23)cn1 [Example 9, N-(2-chloropyrimidin-5-yl)-6-(cyclopropylmethoxy)isoquinolin-1-amine]
4.52 to 5.00 | COC(=O)c1ccc2c(Nc3ccc(Cl)nc3)nccc2c1 [Example 10, methyl 1-((6-chloropyridin-3-yl)amino)isoquinoline-6-carboxylate]
5.00 to 6.00 | Clc1ccc(Nc2nccc3ccsc23)cn1 [Example 12, N-(6-chloropyridin-3-yl)thieno[2,3-c]pyridin-7-amine]
